Assay results: BindingDB's records for doi:10.1016/j.ejmech.2016.09.095 (Orleans University, 2017)

How the values were obtained:
[1] = molecular target: Alpha-N-acetylglucosaminidase (Homo sapiens) (UniProt P54802); experiment: Inhibition of alpha-hexosaminidase (unknown origin)
[2] = molecular target: Alpha-N-acetylglucosaminidase (Homo sapiens) (UniProt P54802); experiment: Inhibition of alpha-hexosaminidase in human PBMC using 4-methylumbelliferyl 2-acetamido-2-deoxy-alpha-D-glucopyranoside as substrate at pH 4.3 after 17 hrs by fluorescence assay

Sequence of Alpha-N-acetylglucosaminidase (Homo sapiens) (P54802 whole entry, looked up): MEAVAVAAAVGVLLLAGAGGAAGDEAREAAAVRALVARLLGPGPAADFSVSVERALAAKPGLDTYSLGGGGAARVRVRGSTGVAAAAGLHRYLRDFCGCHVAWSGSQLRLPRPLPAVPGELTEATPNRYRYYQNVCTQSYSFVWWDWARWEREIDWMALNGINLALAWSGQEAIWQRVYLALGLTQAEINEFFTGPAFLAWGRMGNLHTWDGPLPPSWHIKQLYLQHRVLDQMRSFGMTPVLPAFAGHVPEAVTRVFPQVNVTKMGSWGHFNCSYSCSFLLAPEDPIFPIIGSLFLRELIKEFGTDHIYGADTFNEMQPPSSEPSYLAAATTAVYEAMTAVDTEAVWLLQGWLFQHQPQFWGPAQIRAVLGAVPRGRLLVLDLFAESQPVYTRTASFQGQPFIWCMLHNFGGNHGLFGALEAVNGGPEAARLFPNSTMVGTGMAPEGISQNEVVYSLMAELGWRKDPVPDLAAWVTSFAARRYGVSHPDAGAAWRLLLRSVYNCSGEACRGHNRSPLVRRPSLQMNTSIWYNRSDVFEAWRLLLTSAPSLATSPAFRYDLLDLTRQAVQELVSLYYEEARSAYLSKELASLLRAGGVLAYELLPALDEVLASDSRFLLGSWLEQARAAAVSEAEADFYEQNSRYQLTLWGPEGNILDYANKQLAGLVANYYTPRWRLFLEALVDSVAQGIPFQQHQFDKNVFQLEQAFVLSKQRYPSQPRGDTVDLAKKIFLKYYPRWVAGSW

Row | SMILES | IC50 [1] [nM] | IC50 [2] [nM]
1 | CC(=O)N[C@@H]1[C@@H](O)[C@H](O)[C@@H](CO)N[C@@H]1COCCCCc1ccccc1 | 100 | 
2 | CCCCC[C@H]1NC[C@@H](O)[C@@H](O)[C@H]1CO |  | > 160000
